The values that follow come from patent publication US20160060209A1, “BIS A[…] COMPLEXES FOR X-RAY IMAGING” (BAYER PHARMA AKTIENGESELLSCHAFT üß, priority 2013, published 2016).

This series in a line: Stability of bis azainositol hafnium complexes in aqueous buffered solution on heat treatment (steam autoclave). The class given is physicochemical. The conditions noted are these: aqueous buffered solution pH 7.4, 5 mmol/L, 121° C. for 45 minutes in steam autoclave; HPLC peak area ratio x metal concentration ratio (ICP-OES). As for the experimental part: The stability of bis azainositol hafnium complexes was determined in aqueous, buffered solution at pH 7.4. The solution containing 5 mmol/L of the compound in a tightly sealed vessel was heated to 121° C. for 45 minutes in a steam autoclave. The hafnium concentration of the solution was determined by ICP-OES before and after heat treatment. The integrity of the compound was determined by HPLC analysis before and after heat treatment. Absolute stability was calculated as the ratio of the peak area of the compound after and before the heat treatment multiplied with the ratio of the metal concentration of the solution after and before heat treatment.
HPLC system: Column 1: Reversed phase C18.
Solvent A1: 0.5 mM tetrabutylammonium phosphate pH 6 Solvent A2: 0.1% formic acid in water Solvent B1: methanol Solvent B2: acetonitrile
The use of columns, solvents, flow rate and gradients is detailed in the table below. Detector: element specific detection by ICP-MS, running at m/z 180, the most abundant isotope of hafnium
For the substance “Hydroxido-3κO-[μ3-3,3′,3″-({[1R-(1α,2α,3α,4α,5α,6α)]-2,4,6-trihydroxylato-1κ^2O^2O^6, 2κ^2O^2O^4,3κ^2O^4O^6-cyclohexane-1,3,5-triyl}tris{methylimino-1κN^1,2κN^3,3κN^5}) tri-propanoato-1κO,2κO′,3κO″][μ3-3,3′-({[1R-(1α,2α,3α,4α,5α,6α)]-2,4,6-trihydroxylato-1κ^2O^2O^6,2κ^2O^2O^4,3κ^2O^4O^6-5-[methylamino-3κN^5]cyclohexane-1,3-diyl}bis{methyl-imino-1κN^1,2κN^3})dipropanonato-1κO,2κO′]trihafnium (IV) [Example 1]”, the Stability stood at 100%.
As for “Bis[μ3-2,2′-({[1R-(1α,2α,3α,4α,5α,6α)]-2,4,6-trihydroxylato-1κ^2O^2O^6,2κ^2O^2O^4,3κ^2O^4O^6-5-[(2-hydroxylato-3κO-ethyl)amino-3κN^5]cyclohexane-1,3-diyl}diimino-1κN^1,2κN^3)di-acetato-1κO,2κO′]trihafnium (IV) [Example 8]”, the Stability amounted to 100%.
In the case of “Bis[μ3-3,3′-({[1R-(1α,2α,3α,4α,5α,6α)]-2,4,6-trihydroxylato-1κ^2O^2O^6,2κ^2O^2O^4,3κ^2O^4O^6-5-[(2-hydroxylato-3κO-ethyl)amino-3κN^5]cyclohexane-1,3-diyl}diimino-1κN1,2κN^3)di-propanoato-1κO,2κO′]trihafnium (IV) [Example 3]”, the Stability came out at 100%.
For the substance “Bis[μ3-3,3′-({[1R-(1α,2α,3α,4α,5α,6α)]-5-[(2S,3R)(3,4-dihydroxy-2-hydroxylato-3κO-butyl)amino-3κN^5]-2,4,6-trihydroxylato-1κ^2O^2O^6,2κ^2O^2O^4,3κ^2O^4O^6-cyclohexane-1,3-diyl}diimino-1κN^1,2κN^3)dipropanoato-1κO,2κO′]trihafnium(IV) [Example 5]”, the Stability was 101%.
With “Bis[μ3-2,2′-({[1R-(1α,2α,3α,4α,5α,6α)]-5-[(2-carboxylato-3κO-ethyl)amino-3κN^5]-2,4,6-trihydroxylato-1κ^2O^2O^6,2κ^2O^2O^4,3κ^2O^4O^6-cyclohexane-1,3-diyl}diimino-1κN^1,2κN^3)di-acetato-1κO,2κO′]trihafnium(IV) [Example 10]”, the Stability was determined as 101%.
